ChEMBL document CHEMBL4325874, “Design and synthesis of histamine H3/H4 receptor ligands with a cyclopropane scaffold” (Bioorg Med Chem Lett, 2018)
pKi: −log10 of the molar value.

Key:
[1] = target: Histamine H4 receptor (Homo sapiens, UniProt Q9H3N8); test: Displacement of [3H]histamine from human recombinant histamine H4 receptor expressed in CHO cell membranes after 30 mins by liquid scintillation analysis
[2] = target: Histamine H3 receptor (Homo sapiens, UniProt Q9Y5N1); test: Displacement of [3H]Nalpha-methylhistamine from human recombinant histamine H3 receptor expressed in CHO cell membranes after 30 mins by liquid scintillation analysis
Chain of Histamine H3 receptor (Q9Y5N1 whole entry): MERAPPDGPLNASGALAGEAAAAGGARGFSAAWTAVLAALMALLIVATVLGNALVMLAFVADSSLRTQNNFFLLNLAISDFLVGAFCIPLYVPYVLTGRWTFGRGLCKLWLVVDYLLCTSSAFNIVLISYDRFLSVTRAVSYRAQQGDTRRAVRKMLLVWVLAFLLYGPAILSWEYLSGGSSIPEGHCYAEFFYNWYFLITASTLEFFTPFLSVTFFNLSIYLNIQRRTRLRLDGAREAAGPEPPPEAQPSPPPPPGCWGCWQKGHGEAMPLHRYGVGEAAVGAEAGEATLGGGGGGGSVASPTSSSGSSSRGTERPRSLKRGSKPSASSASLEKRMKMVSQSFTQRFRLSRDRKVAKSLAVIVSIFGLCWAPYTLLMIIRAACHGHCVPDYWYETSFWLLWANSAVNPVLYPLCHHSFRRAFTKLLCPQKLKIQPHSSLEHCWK

SMILES	pKi [1]	pKi [2]
c1ccc2[nH]c(C[C@@H]3C[C@H]3c3c[nH]cn3)nc2c1	6.53	6.73
Clc1ccc(CNCC[C@@H]2C[C@H]2c2nc3cc(Cl)ccc3[nH]2)cc1	< 6.00	< 6.00
CN1CCN([C@@H]2C[C@@H]2CCNCc2ccc(Cl)cc2)CC1	< 6.00	< 6.00
Clc1ccc(CNCC[C@H]2C[C@H]2N2CCNCC2)cc1	< 6.00	< 6.00
Clc1ccc(CNC[C@H]2C[C@H]2N2CCNCC2)cc1	< 6.00	< 6.00

Other lines, results leading:

pKi [1]	pKi [2]	SMILES
< 6.00	< 6.00	Clc1ccc(CNC[C@@H]2C[C@@H]2c2cc3cc(Cl)ccc3[nH]2)cc1
< 6.00	< 6.00	Clc1ccc(CNC[C@@H]2C[C@H]2c2nc3cc(Cl)ccc3[nH]2)cc1
6.78	7.28	c1ccc2[nH]c(CNCC[C@@H]3C[C@H]3c3c[nH]cn3)nc2c1
< 6.00	< 6.00	Clc1ccc(CNCC[C@@H]2C[C@@H]2c2cc3cc(Cl)ccc3[nH]2)cc1
< 6.00	< 6.00	CN1CCN([C@@H]2C[C@@H]2CNCc2ccc(Cl)cc2)CC1
